Data set [1] is described as follows: Stability of the analytes in beagle plasma QC samples under different storage conditions. To be noted: n = 6; for Stability (% RE) Long-Term: 2 weeks at −80 °C; for Stability (% RE) Short-Term: 4 h at ambient temperature; for Stability (% RE) Freeze-Thaw: three freeze (−80 °C)-thaw cycles; for Stability (% RE) Post-Preparative: 12 h after sample preparation at 4 °C. Type of data set: physicochemical, beagle dog. The protocol: As illustrated in Table 4. The stability of QC samples at three evaluated concentrations contained low, medium and high under different stored conditions was assessed on the basis of peak areas in comparison with freshly prepared QC sample.
(§1) The stability of the fourteen analytes in beagle dogs investigated by analyzing QC samples of each analyte at three QC levels (LQC, MQC and HQC) and each level contained six replicates. The short-term stability was assessed during storage for 4 h at ambient temperature. The long-term stability was determined after the QC samples had been stored for 2 weeks at −80 °C. The freeze-thaw stability was determined after three freeze at −80 °C and thaw cycles. and post-preparative stability was during storage for 12 h after sample preparation at 4 °C. The room temperature stability for stock solution was determined after storing the sample at 25 °C for 24 h. A series of concentrations of stability testing QC samples was gained by the calibration curve which was established from freshly prepared standard samples.

A short description of the next data set: in vivo. To be noted: male, beagle, dog, po, 0.12 g/kg.
Data set [2] is described as follows: Room temperature stability of stock solution. The format is physicochemical. To be noted: 25 °C for 24 h, n = 6. The procedure:
as §1

The nature of data set [3]: Pharmacokinetic study in beagle dogs after oral administration of C. bungeana extract (UHPLC-MS/MS of plasma). To be noted: for AUC(0-inf) / AUC(0-t) / Cmax / half-life / Tmax: male, beagle, dog, plasma, po, 0.12 g/kg.
Method: (§2) The developed UHPLC-MS/MS method was employed to determine the pharmacokinetics of the fourteen components in C. bungeana after a single oral administration of 0.12 g/kg (equivalent to 1180.8 µg/kg A, 100.8 µg/kg B, 172.8 µg/kg C, 194.4 µg/kg D, 147.6 µg/kg E, 291.6 µg/kg F, 7.2 µg/kg G, 64.8 µg/kg H, 10.8 µg/kg I, 435.6 µg/kg J, 7.2 µg/kg K, 2851.2 µg/kg L, 694.8 µg/kg M, 928.8µg/kg N) to six beagle dogs. […] According to the Meeh-Rubn method, we established a final oral dosage of 0.12 g/kg in dogs. The plasma concentrations of the fourteen components at each time point were detected and the data gained from six beagle dogs were averaged.
(§3) Before the experiment, the beagle dogs were fasted for 12 h but given water during the research period. Blood (300 µL) was collected from the forelimb vein plexus at a few specific time points (0.083, 0.25, 0.5, 0.75 and 1, 2, 3, 4, 6, 8, 12, 24 h) after the oral administration of the extract of C. bungeana (0.12 g/kg). After centrifugation at 13,000 rpm for 10 min, the plasma was collected immediately and maintained at −80 °C until sample analysis.
(§4) Using a liquid-liquid extraction method, 100 µL of methanol and 50 µL of IS (bifendate) were added to a beagle dog plasma sample (100 µL) followed by vortex for 30 s. Then 3 mL of aether was accurately added and the mixture was vortexed for 60 s. After this step, the samples were put into a centrifuge (XiangYi Technologies, Changsha, Hunan, China). The organic supernatant was pipetted into clean glass tubes individually after centrifugation 3800 rpm for 6 min. The upper organic layer was removed and evaporated to dryness at 40 °C under a stream of nitrogen. The residue was then redissolved with 100 µL of mobile phase (28% acetonitrile), vortexed for 30 s and filtered by a 0.22 µm membrane. A 10 µL aliquot of the solution was injected into the UHPLC-MS/MS system for analysis.
(§5) Concentrations of fourteen alkaloids in beagle dog blood were calculated employing the Excel program (Microsoft Corp., Redmond, WA, USA). Pharmacokinetic parameters were calculated using non-compartmental methods. The elimination rate constant (Ke) was calculated employing the linear regression of the terminal points in a semi-log plot of the plasma concentration against time. The elimination half-life (t1/2) was calculated using the formula. t1/2 = 0.693/Ke(1)
(§6) The area under the blood concentration versus time curve up to the last quantifiable time point (AUC0→t) was calculated by the linear trapezoidal rule. The area under the plasma concentration –time curve to time infinity (AUC0→∞) was calculated as follows: AUC0→∞ = AUC0→t + Ct/Ke(2)
(§7) The maximum observed blood concentration (Cmax) and the time to reach maximum observed blood concentration (Tmax) were obtained directly from the concentration-time curve.
Details of data set [4]: method as in PMID 26805956. To be noted: rat plasma, single oral administration of C. bungeana extract; cited from earlier work.
The mark [5] stands for this setting: beagle dog plasma, oral C. bungeana extract, post-dose.

Read-outs that look alike come from different tables or passages of the source.

Method for in vivo: as §2, §3, §4, §5, §6, §7

For orientation: AUC(0-inf) means the area under the concentration-time curve extrapolated to infinity. By AUC(0-t) is commonly meant exposure summed from dosing to a finite time, without extrapolation to infinity. Read a high AUC(0-t) as high exposure. Usually Cmax stands for the maximum level reached in the sampled fluid or tissue. A word on the Tmax: it is the time from dosing to the highest level. Usually half-life stands for the time in which the quantity being followed falls by half. A lower half-life goes with fast loss. For `c1c2c(cc3c1OCO3)-c1cc3ccc4c(c3c[n+]1CC2)OCO4` [Coptisine, coptisine], in data set [1] (high QC in beagle plasma), the “Stability (% RE) Long-Term” value is 13.69 % RE, the “Stability (% RE) Short-Term” value was determined as 7.57 % RE and the “Stability (% RE) Freeze-Thaw” value came out at 12.83 % RE. For the same compound, in data set [1] (low QC in beagle plasma), the “Stability (% RE) Long-Term” value is reported as 5.48 % RE, the “Stability (% RE) Short-Term” value is 10.66 % RE and the “Stability (% RE) Freeze-Thaw” value came to 10.21 % RE. Moreover, in data set [1] (medium QC in beagle plasma), the “Stability (% RE) Long-Term” value came out at 6.73 % RE, the “Stability (% RE) Short-Term” value is on record as −3.05 % RE and the “Stability (% RE) Freeze-Thaw” value is 8.93 % RE. Further, in “in vivo”, the AUC(0-inf) worked out at 6030 ± 194 ng·h/mL, the AUC(0-t) was determined as 5960 ± 205 ng·h/mL, the Cmax is 2260 ± 256 ng/mL and the Tmax came out at 0.92 ± 0.13 h. In the data set “in vivo”, this compound had a half-life of 2.48 ± 0.33 h.

For `COc1cc2c(cc1O)CC[n+]1cc3c(OC)c(OC)ccc3cc1-2` [Jateorhizine, jateorhizine], in data set [1] (high QC in beagle plasma), the “Stability (% RE) Long-Term” value was 8.26 % RE, the “Stability (% RE) Short-Term” value was 6.64 % RE and the “Stability (% RE) Freeze-Thaw” value is given as 6.24 % RE. Besides, the “Stability (% RE) Post-Preparative” value in data set [1] (high QC) came out at 8.41 % RE. In data set [1] (low QC in beagle plasma), the “Stability (% RE) Long-Term” value turned out to be 12.90 % RE, the “Stability (% RE) Short-Term” value is 7.31 % RE and the “Stability (% RE) Freeze-Thaw” value was 10.65 % RE. For the same compound, the “Stability (% RE) Post-Preparative” value in data set [1] (low QC) is 6.63 % RE. Besides, in data set [1] (medium QC in beagle plasma), the “Stability (% RE) Long-Term” value turned out to be 10.30 % RE, the “Stability (% RE) Short-Term” value is recorded as 3.05 % RE and the “Stability (% RE) Freeze-Thaw” value stood at 8.68 % RE. Also, the “Stability (% RE) Post-Preparative” value in data set [1] (medium QC) is recorded as 8.51 % RE. The “Stability (% RE) Room Temperature for Stock-Solution” value (shortened to “Stability (% RE) Room Temperature”) in data set [2] (high QC level) is reported as 1.32 % RE. In addition, in data set [2] (low QC level), the “Stability (% RE) Room Temperature” value came to 1.16 % RE. The “Stability (% RE) Room Temperature” value in data set [2] (medium QC level) is reported as −3.58 % RE. Besides, in data set [3] (beagle dog plasma, oral C. bungeana extract 0.12 g/kg), the “Shape of plasma concentration-time profile” value is recorded as “conspicuous bimodal phenomenon”. For the same compound, in data set [3] (setting [5]), the “Time of first peak of plasma concentration-time profile” value was in the range of 0.5 to 1 h and the “Time of second peak of plasma concentration-time profile” value lay in the range of 4 to 8 h. In data set [3], the AUC(0-inf) came to 163 ± 11 ng·h/mL, the AUC(0-t) was 151 ± 6.42 ng·h/mL, the concentration peaked (Cmax) at 74.2 ± 8.71 ng/mL and the half-life was 6.29 ± 1.09 h.

Take `CN1CCc2cc3c(cc2C(=O)Cc2ccc4c(c2C1)OCO4)OCO3` [Protopine, protopine]: in data set [1] (high QC in beagle plasma), the “Stability (% RE) Long-Term” value came to 13.11 % RE, the “Stability (% RE) Short-Term” value is on record as 12.18 % RE and the “Stability (% RE) Freeze-Thaw” value was found to be 10.26 % RE. The “Stability (% RE) Post-Preparative” value in data set [1] (high QC) came out at 10.57 % RE. Besides, in data set [1] (low QC in beagle plasma), the “Stability (% RE) Long-Term” value is listed as −5.39 % RE, the “Stability (% RE) Short-Term” value was 5.52 % RE and the “Stability (% RE) Freeze-Thaw” value stood at 3.72 % RE. Also, the “Stability (% RE) Post-Preparative” value in data set [1] (low QC) is 1.65 % RE. For the same compound, in data set [1] (medium QC in beagle plasma), the “Stability (% RE) Long-Term” value turned out to be 7.93 % RE, the “Stability (% RE) Short-Term” value is 8.75 % RE and the “Stability (% RE) Freeze-Thaw” value is 4.17 % RE. For the same compound, the “Stability (% RE) Post-Preparative” value in data set [1] (medium QC) was found to be 11.35 % RE. In addition, the Tmax in data set [4] is recorded as 1.96 h. Further, in data set [3], the AUC(0-inf) worked out at 1080 ± 136 ng·h/mL, the AUC(0-t) worked out at 1030 ± 106 ng·h/mL, the highest level (Cmax) was 434 ± 73.9 ng/mL and the Tmax stood at 0.88 ± 0.13 h. The compound further had a half-life in data set [3] of 4.92 ± 1.49 h.

Turning to `C[n+]1cc2c3c(ccc2c2ccc4cc5c(cc4c21)OCO5)OCO3` [Sanguinarine, sanguinarine], in data set [1] (high QC in beagle plasma), the “Stability (% RE) Long-Term” value is 11.08 % RE, the “Stability (% RE) Short-Term” value stood at 9.29 % RE and the “Stability (% RE) Freeze-Thaw” value was determined as 12.22 % RE. The “Stability (% RE) Post-Preparative” value in data set [1] (high QC) worked out at 10.40 % RE. In addition, in data set [1] (low QC in beagle plasma), the “Stability (% RE) Long-Term” value is recorded as 13.35 % RE, the “Stability (% RE) Short-Term” value is 12.41 % RE and the “Stability (% RE) Freeze-Thaw” value was 11.45 % RE. Besides, the “Stability (% RE) Post-Preparative” value in data set [1] (low QC) is 7.77 % RE. Also, in data set [1] (medium QC in beagle plasma), the “Stability (% RE) Long-Term” value is recorded as 7.46 % RE, the “Stability (% RE) Short-Term” value is recorded as −5.50 % RE and the “Stability (% RE) Freeze-Thaw” value was found to be 8.78 % RE. Further, the “Stability (% RE) Post-Preparative” value in data set [1] (medium QC) is −2.41 % RE. For the same compound, in data set [2] (high QC level), the “Stability (% RE) Room Temperature” value was −4.02 % RE. Further, the “Stability (% RE) Room Temperature” value in data set [2] (low QC level) amounted to 2.48 % RE. Further, the “Stability (% RE) Room Temperature” value in data set [2] (medium QC level) is 3.20 % RE. Moreover, in “in vivo”, the AUC(0-inf) turned out to be 1350 ± 109 ng·h/mL, the AUC(0-t) was determined as 1260 ± 107 ng·h/mL, the Cmax was determined as 533 ± 29.1 ng/mL and the time of peak concentration (Tmax) was found to be 0.96 ± 0.1 h. Also, in the data set “in vivo”, the half-life was 5.63 ± 1.36 h.

Regarding `COc1cc2c(cc1OC)[C@@H]1Cc3ccc(OC)c(OC)c3CN1CC2` [Terahydropalmatine, tetrahydropalmatine], the entries for the “Stability (% RE) Long-Term” value in data set [1] (high QC in beagle plasma), in data set [1] (low QC in beagle plasma) and in data set [1] (medium QC in beagle plasma) were 10.23 % RE, −5.67 % RE and 11.88 % RE, respectively. Besides, the “Stability (% RE) Short-Term” value in data set [1] (high QC in beagle plasma) stood at 5.15 % RE; in data set [1] (low QC in beagle plasma) it was 9.24 % RE; in data set [1] (medium QC in beagle plasma) it was 3.11 % RE. Besides, the “Stability (% RE) Freeze-Thaw” value in data set [1] (high QC in beagle plasma) was 10.09 % RE; in data set [1] (low QC in beagle plasma), 11.34 % RE; in data set [1] (medium QC in beagle plasma) it was 12.23 % RE. Also, the results for the “Stability (% RE) Post-Preparative” value in data set [1] (high QC), in data set [1] (low QC) and in data set [1] (medium QC) were 8.76 % RE, 10.82 % RE and 8.29 % RE, respectively. Also, the “Stability (% RE) Room Temperature” value in data set [2] (high QC level) amounted to 1.28 % RE; in data set [2] (low QC level), 2.97 % RE; in data set [2] (medium QC level), 4.65 % RE. Moreover, in data set [3], the AUC(0-inf) is 622 ± 52.5 ng·h/mL. Also, the AUC(0-t) in data set [3] worked out at 585 ± 59.9 ng·h/mL. Moreover, in data set [3], the Cmax is 205 ± 22.4 ng/mL. Moreover, the Tmax in data set [3] came to 0.92 ± 0.13 h. In data set [3], this compound gave a half-life of 5.58 ± 1.46 h.

For `COc1ccc(CCNC(=O)/C=C/c2ccc(O)c(O)c2)cc1` [Z23, 7′-(3′,4′-dihydroxyphenyl)-N-[(4-methoxyphenyl)-ethyl]propena-mide], the “Stability (% RE) Long-Term” value in data set [1] (high QC in beagle plasma) is 9.00 % RE; in data set [1] (low QC in beagle plasma), −8.16 % RE; in data set [1] (medium QC in beagle plasma) it was 9.86 % RE. Moreover, the “Stability (% RE) Short-Term” value was 10.85 % RE in data set [1] (high QC in beagle plasma), 10.52 % RE in data set [1] (low QC in beagle plasma) and 9.94 % RE in data set [1] (medium QC in beagle plasma). Moreover, the “Stability (% RE) Freeze-Thaw” value in data set [1] (high QC in beagle plasma) amounted to 12.43 % RE; in data set [1] (low QC in beagle plasma), 5.35 % RE; in data set [1] (medium QC in beagle plasma), 12.92 % RE. The “Stability (% RE) Post-Preparative” value in data set [1] (high QC) is listed as −6.09 % RE; in data set [1] (low QC) it was 12.10 % RE; in data set [1] (medium QC) it was 11.32 % RE. Moreover, the “Stability (% RE) Room Temperature” value in data set [2] (high QC level) turned out to be 2.30 % RE; in data set [2] (low QC level), 3.65 % RE; in data set [2] (medium QC level) it was 1.64 % RE. Also, the Tmax is 3.71 h in data set [4] and 0.96 ± 0.1 h in data set [3]. In addition, the AUC(0-inf) in data set [3] was found to be 747 ± 95.2 ng·h/mL. Also, in data set [3], the area under the curve AUC(0-t) came out at 682 ± 74.8 ng·h/mL. In data set [3], this compound registered a Cmax of 237 ± 13.7 ng/mL. In data set [3], this compound showed a half-life of 6.34 ± 1.21 h.

The values are drawn from publication PMC6222357, “Liquid Chromatography-Tandem Mass Spectrometry Simultaneous Determination and Pharmacokinetic Study of Fourteen Alkaloid Components in Dog Plasma after Oral Administration of Corydalis bungeana Turcz Extract” (Molecules : A Journal of Synthetic Chemistry and Natural …, 2018).
